Measurements published in patent publication US20040198605A1, “Growth promoter for gramineous plants” (priority 2001, published 2004).
Several values for one entry are separate records, joined by “and”; a condition that tells them apart may be missing. Identical values can stand only once.

Legend:
[1] = system: Seedlings of lawns (western lawns; Evergreen Lawn Grass); experiment: Hydroponics (water culture) of lawns, serine sprinkled over the surfaces of leaves; format: in vivo; details: 26th day
Description: Seedlings of lawns (western lawns; Evergreen Lawn Grass) were raised and were divided into two groups, A and B, each consisting of 60 seedlings so as to carry out water culture. A given amount of a liquid fertilizer was added to a water culture solution, to which inosine was then added to a concentration of 0.2 ppm. The testing period started on Oct. 6, 1999 and ended on Nov. 1, 1999 (26 days). Group A was set as a control area. As for Group B, 5 ml of a solution so prepared as to have a serine concentration of 20 ppm was sprinkled over the surfaces of leaves every day over a period of 15 days. On the 26th day, the weight of 5 average grown seedlings selected from each group was measured.

[2] = system: Lawn sods (bent grass; breed name: BENCROSS); experiment: Soil culture of lawns, leaf surface sprinkling test; format: in vivo; details: for Weight of Cut Stem/Leaf after Dried (mean of three pots) / Weight of Cut Stem/Leaf after Dried (individual pots): cut on 77th day; for Weight of Cut Stem/Leaf after Dried (individual pots): three pots
Description: Lawn sods having a diameter of 4 cm and a thickness of 3 cm (bent grass; breed name: BENCROSS) were each planted in 1/50 m^2 Wagner pots, and a leaf surface sprinkling test was carried out on a group of three pots. To the soil of each pot, a chemical fertilizer (12-8-10) was add-mixed as the initial fertilizer in an amount of 1 g/pot. Serine was diluted with water to the concentrations shown in the following Table 1 and sprinkled by means of a sprinkler on the 10th day and 24th day after planting. On the 77th day after planting, the plant parts exposed on the ground were cut, and the weight thereof after dried was measured.

[3] = 5 ml of serine 20 ppm sprinkled on leaves daily for 15 days, inosine 0.2 ppm in water culture solution, 5 average seedlings

N[C@@H](CO)C(=O)O [Serine, serine]
Average Leaf Length [1, 3]: 22 cm | Root Length [1, 3]: 4.1 cm | Root length, leaf length and total weight in the raw state (in words) ([1]; serine-treated area): good | Total Weight in Raw State ([1]; total of above-ground portions and roots of 5 undried lawn plants, serine 20 ppm on leaves daily for 15 days, inosine 0.2 ppm in water culture): 0.35 g | Weight of Cut Stem/Leaf after Dried (mean of three pots) ([2]; serine 18.3 ppm sprinkled on 10th and 24th day): 2.27 ± 0.12 g/pot | Weight of Cut Stem/Leaf after Dried (individual pots) ([2]; serine 18.3 ppm sprinkled on leaf surfaces on 10th and 24th day after planting): 2.17 g/pot and 2.43 g/pot and 2.20 g/pot | Percentage (dried weight, Control = 100) ([2]; serine 18.3 ppm, 77th day, * statistically significant difference): 185* | Weight of Cut Stem/Leaf after Dried (mean of three pots) ([2]; serine 183 ppm sprinkled on 10th and 24th day): 1.27 ± 0.16 g/pot | Weight of Cut Stem/Leaf after Dried (individual pots) ([2]; serine 183 ppm sprinkled on leaf surfaces on 10th and 24th day after planting): 1.26 g/pot and 1.47 g/pot and 1.08 g/pot | Percentage (dried weight, Control = 100) ([2]; serine 183 ppm, 77th day): 104 | Growth (in words) ([2]; serine-treated areas, particularly 18.3 ppm-treated areas, 77th day): good growth was observed
